{
  "source": "patent US20100286200A1",
  "about": "“COMBINATION OF METFORMIN AND AN MTP INHIBITOR” (JANSSEN PHARMACEUTICA NV, priority 2008, published 2010)",
  "key": {"[1]": {"test_system": "subjects with type 2 diabetes mellitus undergoing metformin treatment", "assay": "Proof-of-concept 12-week double-blind, randomized, placebo-controlled study of the MTP inhibitor in subjects on metformin treatment", "type": "in vivo, human", "description": "Proof-of-concept study of combinations of metformin and the MTP inhibitor (+)-phenyl-(4-{4-[(4′-trifluoromethyl-biphenyl-2-carbonyl)-amino]-phenyl}-piperidin-1-yl)-acetic acid methyl ester\nSafety and efficacy of the MTP inhibitor (+)-phenyl-(4-{4-[(4′-trifluoromethyl-biphenyl-2-carbonyl)-amino]-phenyl}-piperidin-1-yl)-acetic acid methyl ester in the treatment of subjects with type 2 diabetes mellitus undergoing metformin treatment has been investigated. Three dosing regimens of the MTP inhibitor, 5-10-15 mg bid, were compared to placebo in a double-blind, randomized, parallel-group study design of 12 weeks wherein all subjects were following metformin treatment. All subjects remained on a calorically appropriate, low fat (≦30%) diet, being in accordance with the local practice guidelines for the treatment of type 2 diabetes.\nSubjects randomized into the study had to have type 2 diabetes for at least 3 months and remained on a stable metformin monotherapy for at least 2 months. There were 88, 84, 91 and 89 patients randomized to placebo, 5 mg, 10 mg and 15 mg BID. Mean age was 55 years and there were slightly more males than females randomized into the study (males:females—54%:46%).\nThe mean baseline glycosylated hemoglobin (HbA1c) was 7.8±0.8% (mean±SD) and the mean plasma glucose was 9.1±1.80 mmol/L (mean±SD). The majority (68%) of subjects had HbA1c levels≦8%.\nMean weight at baseline was 94.9 kg and varied between 92.8 kg and 96.7 kg in different treatment groups, while the mean baseline BMI was 32.8 kg/m^2."}, "[2]": {"settings": "cited from earlier work"}, "[3]": {"settings": "5 mg bid, with metformin, week 12"}, "[4]": {"settings": "10 mg bid and 15 mg bid, combination with metformin"}, "[5]": {"settings": "10 mg bid, with metformin, Week 12"}, "[6]": {"settings": "15 mg bid, with metformin, Week 12"}},
  "data": [
    {"compound": "COC(=O)C(c1ccccc1)N1CCC(c2ccc(NC(=O)c3ccccc3-c3ccc(C(F)(F)F)cc3)cc2)CC1", "note": "(single isomer, unassigned; (+)) [(+)-phenyl-(4-{4-[(4′-trifluoromethyl-biphenyl-2-carbonyl)-amino]-phenyl}-piperidin-1-yl)-acetic acid methyl ester]", "values": [
      {"measurement": "mean body weight loss at Week 12", "setting": "[1]; 5 mg bid, with metformin", "value": 1.71, "unit": "kg"},
      {"measurement": "mean body weight loss at Week 12 (percent)", "setting": "[1]; 5 mg bid, with metformin", "value": 1.0, "unit": "%"},
      {"measurement": "mean percentage change from baseline at week 12 in fasting plasma glucose (FPG)", "setting": "[1]; 5 mg bid, with metformin", "value": "−2.3", "unit": "%"},
      {"measurement": "mean decrease in HbA1c (%), change from baseline at Week 12", "setting": "[1]; 5 mg bid, with metformin, Week 12, baseline HbA1c 7.8±0.8%", "value": "−0.46", "unit": "%"},
      {"measurement": "HbA1c least square mean (mixed model) difference from placebo", "setting": "[1]; [3]", "value": 0.19},
      {"measurement": "absolute change from baseline in FPG (decrease)", "setting": "[1]; [3]", "value": 0.37, "unit": "mmol/L"},
      {"measurement": "LDL levels (fasting plasma lipids)", "setting": "[1]; [4]", "value": "Beneficial effects"},
      {"measurement": "ratio of LDL over HDL (fasting plasma lipids)", "setting": "[1]; [4]", "value": "Beneficial effects"},
      {"measurement": "mean body weight loss at Week 12", "setting": "[1]; 10 mg bid, with metformin", "value": 2.80, "unit": "kg"},
      {"measurement": "mean body weight loss at Week 12 (percent)", "setting": "[1]; 10 mg bid, with metformin", "value": 2.9, "unit": "%"},
      {"measurement": "mean percentage change from baseline at week 12 in fasting plasma glucose (FPG)", "setting": "[1]; 10 mg bid, with metformin", "value": "−6.1", "unit": "%"},
      {"measurement": "HbA1c least square mean (mixed model) difference from placebo", "setting": "[1]; [5]", "value": 0.28},
      {"measurement": "absolute change from baseline in FPG (decrease)", "setting": "[1]; [5]", "value": 0.063, "unit": "mmol/L"},
      {"measurement": "mean decrease in HbA1c (%), change from baseline at Week 12", "setting": "[1]; [5]", "value": "−0.55", "unit": "%"},
      {"measurement": "mean body weight loss at Week 12", "setting": "[1]; 15 mg bid, with metformin", "value": 3.37, "unit": "kg"},
      {"measurement": "mean body weight loss at Week 12 (percent)", "setting": "[1]; 15 mg bid, with metformin", "value": 3.6, "unit": "%"},
      {"measurement": "mean percentage change from baseline at week 12 in fasting plasma glucose (FPG)", "setting": "[1]; 15 mg bid, with metformin", "value": "−6.0", "unit": "%"},
      {"measurement": "HbA1c least square mean (mixed model) difference from placebo", "setting": "[1]; [6]", "value": 0.28},
      {"measurement": "absolute change from baseline in FPG (decrease)", "setting": "[1]; [6]", "value": 0.63, "unit": "mmol/L"},
      {"measurement": "mean decrease in HbA1c (%), change from baseline at Week 12", "setting": "[1]; [6]", "value": "−0.54", "unit": "%"},
      {"measurement": "change from baseline at Week 12 of HbA1c levels vs. placebo (mixed model analysis)", "setting": "[1]; all active treatment arms (5, 10, 15 mg bid), with metformin", "value": "statistically significant decrease vs. placebo"},
      {"measurement": "metabolism in the plasma", "setting": "[2]", "value": "rapidly metabolised in the plasma"},
      {"measurement": "systemic plasma concentrations", "setting": "[2]", "value": "very low systemic plasma concentrations"}
    ]}
  ]
}
